Laboratory results as given in patent US20180235919A1, “System and Method For Treating Atheroma Formation” (Lonza Inc., priority 2015, published 2018).

Key:
[1] = Plasma L-carnitine concentration by LC-MS; type: in vivo, mouse; conditions: oral gavage once daily, ApoE KO/AAV-CETP mice (FIG. 3)
Procedure: (§1) ApoE KO mice, male and 6 to 7 weeks of age, were transfected in vivo with AAV-CETP. Two weeks after infection, CETP expression in plasma was verified using a commercially available ELISA kit, and the mice were placed on a Western (high-fat) diet.
(§2) The mice were sorted into several groups based on matching initial total cholesterol and verified CETP expression: 1 control group receiving a dose of dH2O. 2—a group receiving a high dose of L-carnitine (35.2 mg/mL dH2O). 3—a group receiving a low dose of L-carnitine (8.7mg/mL dH2O). 4—a group receiving a high dose of L-carnitine (35.2 mg/mL dH2O) and a dose of methimazaole (1.5 mg/mL dH2O). 5—a group receiving a dose of methimazaole (1.5 mg/mL dH2O).
(§3) Dosing began when the mice reached 10 weeks of age and continued for 12 weeks. Drugs were administered once daily by oral gavage. The animals' body weights were measured weekly.
The concentrations of L-carnitine and TMAO in the plasma were measured using a liquid chromatography mass spectrometry method. A deuterium labeled L-carnitine stock standard was prepared using the weigh by difference technique. About 5 mg of d9-L-carnitine from Cambridge Isotope Laboratories were added to a 10 mL volumetric flask via a weighing funnel or weighing paper, and water:methanol=1:1 was used to dissolve the sample. A deuterium labeled TMAO stock standard was prepared by accurately weighing 25±2 mg of d9-trimethylamine N-oxide reference standard, transferring the sample into a 25 mL volumetric flask, adding about 15 mL of water:methanol=1:1, and vortexing until dissolved. The flask was then filled to volume with water:methanol=1:1
Stock standards of deuterium labeled L-carnitine and deuterium labeled TMAO were prepared using 5 mg/10 mL water/methanol of d9-L-carnitine and 25 mg/25 mL water/methanol of d9-TMAO. These stock standards were used to prepare an internal standard by adding 200 μL of d9-L-carnitine stock standard and 10 μL of d9-TMAO into a 50 mL volumetric flask, adding acetonitrile to volume, and mixing well.
Calibration standards were then prepared. […]

[2] = Plasma TMAO concentration by LC-MS; type: in vivo, mouse; conditions: high dose of L-carnitine (352 mg/kg), oral gavage once daily, ApoE KO/AAV-CETP mice (FIG. 4)
Procedure: as §1, §2, §3
The concentrations of L-carnitine and TMAO in the plasma were measured using a liquid chromatography mass spectrometry method. A deuterium labeled L-carnitine stock standard was prepared using the weigh by difference technique. About 5 mg of d9-L-carnitine from Cambridge Isotope Laboratories were added to a 10 mL volumetric flask via a weighing funnel or weighing paper, and water:methanol=1:1 was used to dissolve the sample. […]

[3] = test system: mouse model of atherosclerosis; assay: En face analysis of thoracic aorta lesions (Sudan IV staining); type: in vivo; conditions: for amount of plaque present in the thoracic aorta (en face analysis): after 12 weeks of treatment, ApoE KO/AAV-CETP mice on Western diet (FIG. 5)
Procedure: as §1, §2, §3
The effect of treatment with L-carnitine and/or methimazole on atherosclerosis progression was determined by measuring the amount of lesions present in the thoracic aorta and the sinotubular junction of the aortic root. After 12 weeks of treatment, the mice were sacrificed, and their tissues were removed for analysis. The En-face thoracic aortas were isolated and prepared for analysis by trimming present fat and fixing the aortas in formalin for 48-72 hours. For morphometric en face analysis, the aortas were laid out, pinned on black matrix, and stained with the lipid binding dye Sudan IV to determine the percentage of the thoracic aorta with lesion present. A Nikon computerized image analysis system was used to image the vessels for surface involvement.

[4] = test system: mouse model of atherosclerosis; assay: Plaque in the aortic root (aortic sinus sections, hematoxylin and eosin); type: in vivo; conditions: after 12 weeks of treatment, ApoE KO/AAV-CETP mice on Western diet (FIG. 7)
Procedure: as §1, §2, §3

SMILES | concentration of L-carnitine in the plasma compared to the control vehicle ([1]; high dose of L-carnitine (352 mg/kg)) | concentration of L-carnitine in the plasma compared to the control vehicle ([1]; low dose of L-carnitine (87 mg/kg)) | concentration of TMAO compared to the vehicle control [2] | amount of plaque present in the thoracic aorta (en face analysis) [3] | amount of plaque in the aortic root [4] | percent lesion area of the thoracic aorta ([3]; TMAO levels higher than 0.1 ppm versus TMAO levels lower than 0.1 ppm (FIG. 6)) | concentration of L-carnitine in comparison to the control vehicle ([1]; methimazole (15 mg/kg))
C[N+](C)(C)C[C@H](O)CC(=O)[O-] [L-carnitine] | significant increase | significant increase | statistically significant increase | no significant changes | small but significant reductions | – | –
C[N+](C)(C)[O-] [TMAO, trimethylamine N-oxide] | – | – | – | – | – | significant decrease | –
Cn1cc[nH]c1=S [methimazole] | – | – | – | no significant changes | small but significant reductions | – | significant decrease
